Assay: molar heat capacity at constant pressure
Conditions: 101.33 kPa, Crystal, Vacuum adiabatic calorimetry

O=C(CO)[C@H](O)[C@H](O)[C@H](O)CO [D-psicose]
Conditions | molar heat capacity at constant pressure [J/K/mol]
123.06 K | 95.25
123.75 K | 95.92
124.29 K | 96.23
124.5 K | 96.3
125.14 K | 96.92
125.8 K | 97.36
125.92 K | 97.34
126.54 K | 97.93
127.3 K | 98.49
127.33 K | 98.38
127.93 K | 98.98
128.73 K | 99.42
128.78 K | 99.54
129.31 K | 99.93
130 K | 100.42
130.16 K | 100.47
130.29 K | 100.63
130.71 K | 100.99
131.62 K | 101.53
131.84 K | 101.76
132.14 K | 102.08
133.07 K | 102.57
133.37 K | 102.87
133.59 K | 103.04
134.51 K | 103.62
134.89 K | 103.97
135.06 K | 104.17
135.94 K | 104.68
136.44 K | 105.12
136.51 K | 105.24
137.4 K | 105.69
137.99 K | 106.23
138.07 K | 106.25
138.89 K | 106.78
139.5 K | 107.37
139.73 K | 107.46
140 K | 107.65
140.36 K | 107.86
141 K | 108.43
141.38 K | 108.63
141.83 K | 108.94
142.49 K | 109.66
143.02 K | 109.81
143.29 K | 109.97
143.97 K | 110.56
144.64 K | 111.02
144.78 K | 111.03
145.47 K | 111.62
146.29 K | 112.11
146.3 K | 112.15
147.05 K | 112.77
147.84 K | 113.18
147.99 K | 113.34
148.65 K | 113.9
149.42 K | 114.29
149.66 K | 114.52
150 K | 114.81
150.25 K | 115.05
150.99 K | 115.45
151.33 K | 115.73
151.83 K | 116.23
152.59 K | 116.62
152.98 K | 116.92
153.45 K | 117.32
154.22 K | 117.72
154.66 K | 118.11
155.09 K | 118.5
155.87 K | 118.94
156.38 K | 119.3
156.72 K | 119.64
157.54 K | 120.08
158.08 K | 120.68
158.34 K | 120.83
159.19 K | 121.26
159.8 K | 121.76
159.95 K | 121.9
160 K | 121.93
160.88 K | 122.45
161.55 K | 122.94
161.59 K | 123.12
162.65 K | 123.73
163.25 K | 124.33
163.33 K | 124.2
164.46 K | 125
164.91 K | 125.57
165.14 K | 125.56
166.25 K | 126.31
166.6 K | 126.8
166.94 K | 126.82
168.04 K | 127.62
168.33 K | 127.92
168.72 K | 128.08
169.85 K | 128.88
170 K | 129.01
170.09 K | 129.15
170.5 K | 129.38
171.7 K | 130.21
171.88 K | 130.42
172.31 K | 130.62
173.54 K | 131.46
173.65 K | 131.69
174.14 K | 131.92
175.36 K | 132.69
175.42 K | 132.94
175.97 K | 133.17
177.18 K | 134.01
177.23 K | 134.2
177.78 K | 134.49
179.06 K | 135.42
179.11 K | 135.51
179.59 K | 135.75
180 K | 136.08
181.01 K | 136.76
181.03 K | 136.92
181.46 K | 137.08
182.93 K | 138.2
182.95 K | 138.09
183.4 K | 138.47
184.83 K | 139.53
184.88 K | 139.49
185.32 K | 139.84
186.71 K | 140.84
186.79 K | 140.88
187.28 K | 141.21
188.62 K | 142.21
188.74 K | 142.23
189.26 K | 142.58
190 K | 143.15
190.56 K | 143.63
190.71 K | 143.67
191.28 K | 144.05
192.49 K | 144.97
192.68 K | 145.06
193.32 K | 145.45
194.41 K | 146.37
194.63 K | 146.4
195.35 K | 146.92
196.32 K | 147.62
196.58 K | 147.65
197.38 K | 148.33
198.25 K | 149.1
198.55 K | 149.16
199.39 K | 149.76
200 K | 150.21
200.22 K | 150.43
200.55 K | 150.56
201.43 K | 151.19
202.17 K | 151.83
202.58 K | 152.06
203.5 K | 152.67
204.12 K | 153.18
204.65 K | 153.53
205.56 K | 154.09
206.7 K | 154.98
207.61 K | 155.56
208.78 K | 156.4
209.65 K | 157.04
210 K | 157.3
210.89 K | 157.92
211.72 K | 158.49
212.99 K | 159.44
213.81 K | 160.01
215.07 K | 160.9
215.9 K | 161.43
217.15 K | 162.36
217.98 K | 163.06
219.31 K | 163.88
220 K | 164.4
220.04 K | 164.46
221.53 K | 165.48
222.21 K | 165.84
223.74 K | 167.09
224.47 K | 167.6
225.94 K | 168.64
226.71 K | 169.21
228.14 K | 170.2
228.95 K | 170.75
230 K | 171.54
230.36 K | 171.83
231.25 K | 172.46
232.61 K | 173.46
233.65 K | 174.15
234.87 K | 174.98
236.07 K | 175.9
237.14 K | 176.72
238.49 K | 177.45
239.4 K | 178.38
240 K | 178.72
240.95 K | 179.37
241.69 K | 179.82
243.45 K | 181.14
244.01 K | 181.62
245.99 K | 183.07
246.32 K | 183.25
248.54 K | 184.87
248.61 K | 184.95
250 K | 185.94
250.9 K | 186.65
251.09 K | 186.81
253.21 K | 188.45
253.63 K | 188.66
255.55 K | 189.85
256.15 K | 190.4
257.88 K | 191.75
258.7 K | 192.25
260 K | 193.15
260.93 K | 193.78
263.32 K | 195.6
265.71 K | 197.22
268.09 K | 199.02
270 K | 200.36
270.5 K | 200.87
272.99 K | 202.45
275.52 K | 204.17
278.04 K | 206.05
280 K | 207.59
280.55 K | 207.87
281.85 K | 208.9
282.34 K | 209.34
283.14 K | 209.63
284.44 K | 210.76
284.81 K | 211
285.82 K | 211.74
287.07 K | 212.81
287.31 K | 212.9
288.48 K | 213.7
289.68 K | 214.75
289.9 K | 214.79
290 K | 214.85
291.13 K | 215.63
292.28 K | 216.49
292.52 K | 216.73
293.77 K | 217.6
294.87 K | 218.44
295.13 K | 218.64
296.44 K | 219.94
297.49 K | 220.33
298.15 K | 220.79
299.14 K | 221.01
300 K | 222.14
300.13 K | 222.34
301.82 K | 223.5
302.77 K | 224.25
304.49 K | 225.49
305.39 K | 226.09
307.15 K | 227.47
308 K | 228.01
309.84 K | 229.4
310 K | 229.48
310.63 K | 229.95
312.56 K | 231.38
313.29 K | 231.87
315.26 K | 233.4
315.94 K | 233.92
318.01 K | 235.4
318.58 K | 235.78
320 K | 236.88
320.81 K | 237.33
321.2 K | 237.81
323.64 K | 239.66
323.85 K | 239.71
326.49 K | 241.59
326.53 K | 241.79
329.19 K | 243.75
329.33 K | 243.86
330 K | 244.34

Reference: the NIST ThermoML archive (doi:10.1016/j.jct.2018.11.014)
